Calls of active or inactive are those of the source. The rule behind the calls is not given here.
Columns and labels:
Format in all cases: functional
[1] = Antioxidant activity assessed as inhibition of fenton reaction-induced pBR322 DNA single strand break by CAS assay
[2] = Antioxidant activity assessed as inhibition of fenton reaction-induced pBR322 DNA single strand break by agarose gel electrophoresis
[3] = test system: Radical scavenging activity; experiment: Antioxidant activity assessed as DPPH radical scavenging activity
[4] = Antioxidant activity assessed as ABTS radical scavenging activity

Row | SMILES | Activity [1] | Activity [2] | IC50 [3] | IC50 [4]
1 | CC1=CC(=O)C2(O1)c1c(cc(/C=C/c3ccc(O)c(O)c3)oc1=O)OC2c1ccc(O)c(O)c1 (stereo not drawn) | Active | Active | – | –
2 | COC(=O)CC1=CC(=O)[C@H](c2c(O)cc(/C=C/c3ccc(O)c(O)c3)oc2=O)[C@@H](c2ccc(O)c(O)c2)O1 [BAUMIN] | Active | Active | 7.5 µM | 11.7 µM
3 | O=c1oc2cc(/C=C/c3ccc(O)c(O)c3)oc(=O)c2c2cc(O)c(O)cc12 | Active | Active | – | –
4 | CC(=O)/C=C(O)/C(=C\c1ccc(O)c(O)c1)c1c(O)cc(/C=C/c2ccc(O)c(O)c2)oc1=O | Active | Active | – | –
5 | CC1=CC(=O)[C@H](c2c(O)cc(/C=C/c3ccc(O)c(O)c3)oc2=O)[C@@H](c2ccc(O)c(O)c2)O1 [DAVALLIALACTONE] | Active | Active | 1.2 µM | 2.8 µM
6 | O=c1cc(O)cc(/C=C/c2ccc(O)c(O)c2)o1 | Active | inactive | – | –
7 | O=c1cc(O)cc([C@H]2c3c(cc(/C=C/c4ccc(O)c(O)c4)oc3=O)O[C@@H]2c2ccc(O)c(O)c2)o1 | Active | Active | – | –

Source: ChEMBL document CHEMBL1221351, “Styrylpyrones from the medicinal fungus Phellinus baumii and their antioxidant properties” (Bioorg Med Chem Lett, 2010)
